# From US20140322251A1, “Peptides for Progressive Treating Multi-Focal Leukoencephalopathy and Related Conditions” (priority 2013, published 2014)
# “Also recorded” adds a separate entry of the source.
# Columns and labels:
# chemokine receptors = conditions: two D-substitutions in peptide T; cited from earlier work
# [1] = tested on: HIV (92HT596; R5/X4 isolate) entry via CXCR4, MAGI-CXC4 cells; conditions: peptide 1 nM, 48 hrs, mean and s.e.m of triplicate cultures; cited from earlier work
# HIV gp120 neurotoxicity = conditions: cited from earlier work; for EC50: read-out: EC50 (pM), antagonism of HIV gp120 neurotoxicity
# [2] = tested on: HIV (92HT596; R5/X4 isolate) entry via CCR5, MAGI-CCR5 cells; conditions: peptide 1 nM, 48 hrs, mean and s.e.m of triplicate cultures; cited from earlier work
# [3] = tested on: neuropathic pain and inflammation; conditions: animals; cited from earlier work
# [4] = tested on: CCR5/CCR2 chemokine receptor system, CCL2 chemotaxis of human monocytes; assay: CCL2 (MCP-1) mediated human monocyte chemotaxis (FIG. 1); assay type: cell-based; conditions: FIG. 1, triplicate determinations
# Text: FIG. 1 illustrates that all-D-pentapeptide analogs of Peptide T inhibit CCL2 mediated human monocyte chemotaxis.
# In order to overcome this limitation we hereby disclose an unexpected method of preserving potency. […] B. Pert, J. D. Rone, R. Nixon, M. Vance, B. Sandler, M. D. Lumpkin, D. J. Dieter, and M. R. Ruff. 1999. Peptide T blocks GP120/CCR5 chemokine receptor-mediated chemotaxis. Clin Immunol.
# The FIG. 1 assay measured the peptide's ability to block CCL2 (MCP-1) chemotaxis.
substance,measurement,setting,value
"(D-A1, D-T8)-peptide T-NH2",loss of potency versus peptide T,chemokine receptors,"over 100,000 fold"
TTSYT,BFU (% Control) MAGI-CXC4,[1],35 +/− 7 % Control
same,EC50,HIV gp120 neurotoxicity,10 pM
same,BFU (% Control) MAGI-CCR5,[2],23 +/− 5 % Control
SSTYR,EC50,HIV gp120 neurotoxicity,1 pM
(all-D)-TTNYT,oral efficacy,[3],prevent and reverse neuropathic pain and block inflammation
same,block of CCL2 (MCP-1) chemotaxis / CCR5/CCR2 chemokine receptor system,[4],blocked
TENYT [reference compound],"EC50 (pM), antagonism of HIV gp120 neurotoxicity",HIV gp120 neurotoxicity,inactive
TTNYT,BFU (% Control) MAGI-CXC4,[1],45 +/− 7 % Control
same,EC50,HIV gp120 neurotoxicity,10 pM
same,BFU (% Control) MAGI-CCR5,[2],23 +/− 4 % Control
TTSFT [reference compound],EC50,HIV gp120 neurotoxicity,100000 pM
ETWYS,BFU (% Control) MAGI-CXC4,[1],65 +/− 5 % Control
same,EC50,HIV gp120 neurotoxicity,13 pM
same,BFU (% Control) MAGI-CCR5,[2],21 +/− 7 % Control
TTNdYT [reference compound],"EC50 (pM), antagonism of HIV gp120 neurotoxicity",HIV gp120 neurotoxicity,inactive
same,activity / biopotency (gp120 neurotoxicity),HIV gp120 neurotoxicity,loss of all activity; also recorded: completely loses activity
STNYT,EC50,HIV gp120 neurotoxicity,3 pM
TDNYT [reference compound],EC50,HIV gp120 neurotoxicity,3000 pM
NTSYG,BFU (% Control) MAGI-CXC4,[1],60 +/− 8| % Control
same,EC50,HIV gp120 neurotoxicity,10 pM
